The values that follow come from ChEMBL document CHEMBL5543078, “Peptidomimetics as potent dual SARS-CoV-2 cathepsin-L and main protease inhibitors: In silico design, synthesis and pharmacological characterization” (Eur J Med Chem, 2024).

In one data set the test system is Human coronavirus OC43. The data set is classed as functional, organism-based.
Data set [1] concerns SARS-CoV-2. The data set is described as follows: microbe, parasite or virus in culture. To be noted: Severe acute respiratory syndrome coronavirus 2, Omicron B1.1.529, Vero.
Description: Antiviral activity against SARS-CoV-2 Omicron B1.1.529 infected in African green monkey Vero cells assessed as reduction in virus-induced cytopathic effect incubated for 6 to 7 days by microscopic analysis
The target in another data set is Procathepsin L (Homo sapiens, UniProt P07711). The data set is described as follows: Inhibition of Cathepsin L (unknown origin) using Z-Leu-Arg-AMC fluorometric dipeptide as substrate peincubated for 10 mins followed by substrate addition by fluorescence based assay.
A further data set deals with Human coronavirus 229E. It is filed as functional, organism-based.
Data set [2] deals with Replicase polyprotein 1ab (Severe acute respiratory syndrome coronavirus 2, UniProt P0DTD1). The data set can be described thus: Inhibition of recombinant SARS-CoV-2 main protease using DABCYL-KTSAVLQSGFRKME-EDANS as fluorescent substrate preincubated for 30 mins followed by substrate addition by FRET assay.
Data set [3] deals with SARS-CoV-2. The data set can be described thus: microbe, parasite or virus in culture. To be noted: Severe acute respiratory syndrome coronavirus 2, NVDBB-2220 (Alpha), Vero.
Description: Antiviral activity against SARS-CoV-2 NVDBB-2220 (Alpha) infected in African green monkey Vero cells assessed as reduction in virus-induced cytopathic effect incubated for 6 to 7 days by microscopic analysis
The subject of data set [4] is SARS-CoV-2. The data set is described as follows: microbe, parasite or virus in culture. To be noted: Severe acute respiratory syndrome coronavirus 2, Wuhan/WIV04/2020, Vero.
Description: Antiviral activity against SARS-CoV-2 Wuhan/WIV04/2020 infected in African green monkey Vero cells assessed as reduction in virus-induced cytopathic effect incubated for 6 to 7 days by microscopic analysis
Data set [5] deals with SARS-CoV-2. The data set is described as follows: microbe, parasite or virus in culture. To be noted: Severe acute respiratory syndrome coronavirus 2, 860-J1 (Delta), Vero.
Description: Antiviral activity against SARS-CoV-2 860-J1 (Delta) infected in African green monkey Vero cells assessed as reduction in virus-induced cytopathic effect incubated for 6 to 7 days by microscopic analysis
The nature of data set [6]: Cytotoxicity against African green monkey Vero cells assessed as change in cell morphology by measuring minimum cytotoxic concentration by microscopic analysis. The data set is classed as toxicity, cell-based. To be noted: chlorocebus sabaeus.
Data set [7] is described as follows: Metabolic stability in human liver microsomes assessed as intrinsic clearance incubated upto 60 mins in presence of NADPH by LC-MS analysis. The data set is classed as ADME, Microsome. To be noted: read-out: CLH. For orientation: Liver microsomes are a subcellular fraction often used to study metabolism.
A short description of data set [8]: Stability in simulated gastric fluid assessed as parent compound remaining incubated upto 120 mins by LC-MS analysis. It is filed as ADME. To be noted: read-out: Stability.
Data set [9] can be described thus: Metabolic stability in human liver microsomes assessed as half life incubated upto 60 mins in presence of NADPH by LC-MS analysis. The data set is classed as ADME, Microsome.
A short description of data set [10]: Half life in human plasma at 10 uM measured upto 180 mins by LC-MS analysis. The data set is classed as ADME, cell-free.
Data set [11] in a line: Stability in simulated intestinal fluid assessed as parent compound remaining incubated upto 120 mins by LC-MS analysis. It is filed as ADME. To be noted: read-out: Stability.
Data set [12] is described as follows: Metabolic stability in human liver microsomes assessed as half life incubated upto 60 mins in presence of NADPH and UDPGA by LC-MS analysis. It is filed as ADME, Microsome.

Active and inactive are the calls of the source. Residues, ends and D or L forms follow the SMILES beside them. *: point of attachment. Acryloyl = C=CC(=O)*; NHBn = c1ccc(CN*)cc1; ClAc = O=C(CCl)*

Sequence of Procathepsin L (P07711 whole entry): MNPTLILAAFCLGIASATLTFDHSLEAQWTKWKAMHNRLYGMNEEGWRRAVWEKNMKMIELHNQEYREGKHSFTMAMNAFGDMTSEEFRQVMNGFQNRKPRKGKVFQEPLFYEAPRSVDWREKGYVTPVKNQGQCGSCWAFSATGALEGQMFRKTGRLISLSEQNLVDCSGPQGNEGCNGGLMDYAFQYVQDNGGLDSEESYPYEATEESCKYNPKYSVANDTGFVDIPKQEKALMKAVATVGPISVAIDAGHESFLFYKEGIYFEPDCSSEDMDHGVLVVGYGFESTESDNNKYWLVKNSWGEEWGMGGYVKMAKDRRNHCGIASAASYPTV

As to `C=CC(=O)N[C@@H](Cc1ccccc1)C(=O)N[C@@H](Cc1c[nH]c2ccccc12)C(=O)NCc1ccccc1` (Acryloyl-Phe-Trp-NHBn), the result in the data set on Human coronavirus OC43 and in the data set on Human coronavirus 229E was Active. In addition, the EC50 in the data set on SARS-CoV-2 [1], in the data set with SARS-CoV-2 [3], in the data set with SARS-CoV-2 [4] and with SARS-CoV-2 [5] was over 20000 nM in each case. In addition, the IC50 (against Procathepsin L; in [2]) was over 30000 nM each time. Also, the MCC in [6] is over 100 µM.
With `CC(C)C[C@@H](NC(=O)CCl)C(=O)N[C@@H](Cc1c[nH]c2ccccc12)C(=O)NCc1ccccc1`, the CLint scaled in [7] was under 45 mL/min/kg. In addition, the remaining at 2 h in data set [8] and in [11] was over 80% each time. Besides, the outcome with Human coronavirus OC43 and with Human coronavirus 229E was Active. The half-life (in general, the time needed for the level to fall by half in the phase considered) in [9] was found to be 1.24 h; in data set [12] it was 1.25 h. Moreover, the EC50 (as a rule, the concentration that produces a half-maximal response) was 1370 nM in the data set on SARS-CoV-2 [1], 570 nM with SARS-CoV-2 [3], 80 nM in the data set on SARS-CoV-2 [4] and 1080 nM in the data set with SARS-CoV-2 [5]. In addition, the IC50 (in general, the point on the concentration scale where inhibition reaches its midpoint) in data set [2] is over 30000 nM. Further, the half-life at 10 µM in data set [10] was 3.87 h. Besides, the MCC in data set [6] was over 100 µM.
As for `CC(C)C[C@H](NC(=O)[C@H](Cc1c[nH]c2ccccc12)NC(=O)CCl)C(=O)NCc1ccccc1` (ClAc-Trp-Leu-NHBn), the remaining at 2 h in [8] and in data set [11] was over 80% each time. For the same compound, the result in the data set with Human coronavirus OC43 and with Human coronavirus 229E was Active. Further, the EC50 with SARS-CoV-2 [1] came to 400 nM; in the data set on SARS-CoV-2 [3], 410 nM; in the data set on SARS-CoV-2 [4], 250 nM; in the data set on SARS-CoV-2 [5], 1250 nM. In data set [2], the IC50 was 8320 nM. In data set [10], this compound had a half-life at 10 µM of 0.407 h. Also, the MCC in data set [6] was 20 µM.
In the case of `CCOC(=O)[C@H]1O[C@@H]1C(=O)N[C@@H](CC(C)C)C(=O)NCCC(C)C` [ALOXISTATIN], the outcome in the data set on Human coronavirus OC43 and with Human coronavirus 229E was Active. Moreover, inhibition on Procathepsin L was half-maximal at 34 nM (IC50).
For `O=C(CCl)NCC(=O)N[C@@H](Cc1c[nH]c2ccccc12)C(=O)NCc1ccccc1` (ClAc-Gly-Trp-NHBn), the CLint scaled in data set [7] is under 15 mL/min/kg. For the same compound, the remaining at 2 h in [8] and in [11] was over 80% each time. Further, the result with Human coronavirus OC43 and with Human coronavirus 229E was Active. Further, the half-life in [9] amounted to 5.78 h; in data set [12], 2.03 h. Besides, the EC50 in the data set with SARS-CoV-2 [1] was determined as 810 nM; in the data set with SARS-CoV-2 [3], 300 nM; with SARS-CoV-2 [4], 160 nM; with SARS-CoV-2 [5], 540 nM. For the same compound, the IC50 in data set [2] is over 30000 nM. The MCC in [6] was over 100 µM.
